Results reported in US20160374985A1, “Bioactivity proanthocyanidin compound isolated from Lasia spinosa (L.) Thwait” (Hong Kong Baptist University, priority 2015, published 2016).
Converted amounts (≈) assume the structure as drawn.

Tests used:
[1] = system: KYSE-450 cells; assay: MTT cytotoxicity assay; assay type: cell-based; conditions: Homo sapiens, 48 h
Description: (§1) Murine RAW264.7 macrophages and human esophageal cancer cell lines KYSE-70, KYSE-150, KYSE-410, KYSE-520 were maintained in RPMI 1640 or DMEM medium supplemented with 100 U/mL penicillin, 100 μg/mL streptomycin and 10% FBS in an incubator at 37° C. with a humidified atmosphere of 5% CO2. Cells were sub-cultured every three days at a dilution of 1:6.
(§2) In the present invention, PA1 was dissolved in dimethyl sulfoxide (DMSO) to make stock solutions which were further diluted in culture medium for this experiment. Cells were seeded in a 96-well plate (3×10^3 cells/well) and allowed to attach to the plate overnight. After the recovery, cells were treated with 1.56, 3.125, 6.25, 12.5, 25, 50 μg/mL of PA1 in culture medium for 48 h. Then, 20 μL of MTT (5 mg/mL stock in PBS) per well was added into the medium (200 μL) and incubated for 4 h at 37° C. Finally, the culture medium was removed and 200 μL of DMSO were added to dissolve the purple formazan crystals. Absorbance of the solution was measured using a microplate reader spectrophotometer (Bio-Rad Laboratories, Inc., Hercules, Calif.) at a wavelength of 570 nm.
To determine the cytotoxic effect of PA1 against human esophagus cancer cells (KYSE-70, KYSE-150, KYSE-450 and KYSE-520 cell lines), MTT (3-[4,5-dimethylthiazol-2-yl]-2,5-diphenyltetrazolium bromide) assay was performed.

[2] = system: LPS-stimulated RAW264.7 macrophages; assay: Nitric oxide production determination (Griess reagent); assay type: cell-based, murine; conditions: LPS 100 ng/mL, PA1 1.56-50 μg/mL, vs LPS-alone
Description: Murine RAW264.7 macrophages and human esophageal cancer cell lines KYSE-70, KYSE-150, KYSE-410, KYSE-520 were maintained in RPMI 1640 or DMEM medium supplemented with 100 U/mL penicillin, 100 μg/mL streptomycin and 10% FBS in an incubator at 37° C. with a humidified atmosphere of 5% CO2. Cells were sub-cultured every three days at a dilution of 1:6. Nitric oxide (NO) production was indirectly assessed by measuring the nitrite levels in the cultured medium determined by a colorimetric method based on the Griess reagent. The cells were co-treated with various concentrations of PA1 in the absence or presence of LPS (100 ng/mL) at 37° C. for 24 hours. Then, 100 μL of each supernatant was mixed with the equal volume of Griess reagent incubated at room temperature for 15 minutes; meanwhile, sodium nitrite was used as a standard substance. The optical densities were measured at 540 nm with a micro-plate reader.

[3] = system: KYSE-150 cells; assay: MTT cell viability, KYSE-150; assay type: cell-based, human; conditions: 6.25 μg/mL
Description: as §2, with “Murine RAW264.7 macrophages and human esophageal cancer cell lines KYSE-70, KYSE-150, KYSE-410, KYSE-520 were maintained in RPMI 1640 or DMEM medium supplemented with 100 U/mL penicillin, 100 μg/mL streptomycin and 10% FBS in an incubator at 37° C. with a humidified atmosphere of 5% CO2. Cells were sub-cultured every three days at a dilution of 1:6. In the” for “In the”

[4] = system: RAW264.7 macrophages; assay: Cell viability of RAW macrophages; assay type: cell-based, murine; conditions: RAW cells, 1.56-50 μg/mL, 20 hours
Description: as §2, with “Murine RAW264.7 macrophages and human esophageal cancer cell lines KYSE-70, KYSE-150, KYSE-410, KYSE-520 were maintained in RPMI 1640 or DMEM medium supplemented with 100 U/mL penicillin, 100 μg/mL streptomycin and 10% FBS in an incubator at 37° C. with a humidified atmosphere of 5% CO2. Cells were sub-cultured every three days at a dilution of 1:6. In the” for “In the”, “plate overnight. […] Then, 20” for “plate overnight. After the recovery, cells were treated with 1.56, 3.125, 6.25, 12.5, 25, 50 μg/mL of PA1 in culture medium for 48 h. Then, 20”

[5] = system: KYSE-150 cells; assay: Wound healing assay; assay type: cell-based, human; conditions: PA1 6.25 μg/mL, 72 hours
Description: as §1
6×10^4 cell/well were seeded in 12 well-plate at 30% confluence in completed medium. After 24 hours seeding, the monolayer was wounded by scoring with a sterile plastic tip (1 mL), then washed twice with PBS to remove cell debris and then incubated in a conditioned medium in the absence or presence of PA1 at 6.25 μg/mL for various periods of time up to 72 hours. Cell migration into the wound surface was monitored by Olympus IX71 microscopy and digitally photographed.
In addition, wound-healing assay was used to test whether those compounds could affect cell motility. A confluent monolayer of KYSE-150 cells was scratched to form a wound and incubated in the absence or presence of PA1 at 6.25 μg/mL. The results obtained were compared to that of controls.

[6] = system: DSS-induced colitis; assay: DSS-induced colitis mouse model; assay type: in vivo, C57BL/6 mice
From the text: 7-week-old male C57BL/6 mice weighing about 20-22 g were purchased from the Laboratory Animal Services Center, the Chinese University of Hong Kong. The study protocols were approved by the committee for Care of Laboratory Animals in the School of Chinese Medicine at the Hong Kong Baptist University.
The animals were randomly assigned into five groups (n=8). Mice in the control group were supplied with distilled water whereas all other experimental groups were given 2.0% (w/v) dextran sulphate sodium (DSS) for 5 days. Thereafter, the mice of the DSS, SASP-treated (200 mg/kg/day) and PA1 (10 or 30 mg/kg/day)-treated groups were administered by gavage with saline, SASP or PA1 from day 6 to day 13, respectively.
The DAI was determined by scoring changes in the body weight, diarrhea, colon length, and bleeding.
The colons were dissected longitudinally, gently washed with ice-cold phosphate buffer saline (PBS), fixed in 4% paraformaldehyde overnight, and embedded in paraffin. Each of five-micro-meter sections was stained with hematoxylin/eosin according to a standard procedure to evaluate colonic damage.
Myeloperoxidase (MPO) is an enzyme mainly released by neutrophil, and its activity is directly associated with the severity of inflammation in a given tissue. In the present invention, MPO activity was measured as described in the inventor's earlier publication (Mu, H. X., et al., Anti-inflammatory Actions of (|)-3′alpha-Angeloxy-4′-keto-3′,4′-dihydroseselin (Pd-Ib) against Dextran Sulfate Sodium-Induced Colitis in C57BL/6 Mice. J Nat Prod, 2016). The results were normalized to the wet weight of colon tissue and quantified as units/g tissue.

[7] = mice, 2% DSS, PA1 10 or 30 mg/kg/day by gavage day 6-13

Oc1cc(O)c2c(c1)OC1(c3ccc(O)c(O)c3)Oc3cc(O)c4c(c3C2C1O)OC(c1ccc(O)c(O)c1)[C@@H](O)C4 (some centres unmarked) [PA1, proanthocyanidin A1]
IC50 [1]: 48.6 µg/mL (≈ 84.4 µM) | NO production [2]: significant inhibition of NO production | Cell viability [3]: did not alter the cells viability | Cell viability [4]: did not alter the cells viability | Cell migration into the wound [5]: did not migrate into the wound | Colonic MPO activity ([6]; colon homogenates, day 14, vs DSS group): significantly lower the MPO activity | Histological manifestation of colon (H&E) ([6]; mice, 2% DSS, PA1 10 or 30 mg/kg, vs DSS group): reduction in mucosal ulceration, crypt damage, edema, and cell infiltration into mucosal tissue | Disease activity index (DAI) score [6, 7]: clinical improvement | Mortality [6, 7]: decreased | Body weight loss ([6]; mice, 2% DSS, PA1 10 or 30 mg/kg/day by gavage day 6-13, vs DSS group): reduced body weight loss | Shortening of colon length ([6]; mice, 2% DSS, PA1 10 or 30 mg/kg/day by gavage, day 14): rectified
